Patent publication US10058534B2, “Benzothiophene derivatives and compositions thereof as selective estrogen receptor degraders” (NOVARTIS AG, priority 2013, dated 2018)

Molecular target: ERα (Homo sapiens (Human), UniProt P03372)
Assay: ERα degradation (MCF7 cells), in-cell Western
Assay type: cell-based
Conditions: MCF7 cells; for IC50: inflection point of the degradation in response to ligand concentration; for % ERα remaining: remaining ERα protein at 10 μM ligand, relative to DMSO control
Protocol: ERα Degradation (MCF7 Cells)
The column titled MCF7 IC50 reports the inflection point of the inhibition of transcription in MCF7 cells as described above. Percentage ERα remaining reports the remaining ERα protein measured at 10 μM concentration of the ligand as described above. The column ERα IC50 reports the inflection point of the degradation in response to the ligand concentration.

Chain of ERα (P03372 whole entry): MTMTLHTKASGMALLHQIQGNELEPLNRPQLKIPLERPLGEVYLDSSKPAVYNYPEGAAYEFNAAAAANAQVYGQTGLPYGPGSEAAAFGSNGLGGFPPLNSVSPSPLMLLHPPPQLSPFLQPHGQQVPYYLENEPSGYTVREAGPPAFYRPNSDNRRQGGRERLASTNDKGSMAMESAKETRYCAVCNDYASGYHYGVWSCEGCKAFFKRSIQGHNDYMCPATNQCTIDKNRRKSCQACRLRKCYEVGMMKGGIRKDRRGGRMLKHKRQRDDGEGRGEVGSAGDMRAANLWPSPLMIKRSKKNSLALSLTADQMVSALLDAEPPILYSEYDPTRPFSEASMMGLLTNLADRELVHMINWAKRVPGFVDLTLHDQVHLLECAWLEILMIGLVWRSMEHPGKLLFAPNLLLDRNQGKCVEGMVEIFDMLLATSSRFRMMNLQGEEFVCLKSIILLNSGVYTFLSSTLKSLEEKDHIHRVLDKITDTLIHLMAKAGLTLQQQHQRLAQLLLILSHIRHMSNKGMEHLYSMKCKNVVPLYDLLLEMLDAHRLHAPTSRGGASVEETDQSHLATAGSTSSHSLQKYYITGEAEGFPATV

SMILES | IC50 | % ERα remaining
O=C(O)CCc1ccc(Oc2c(-c3ccc(O)cc3)sc3cc(O)ccc23)cc1 [Example 1, 3-(4-((6-hydroxy-2-(4-hydroxyphenyl)-benzo[b]thiophen-3-yl)oxy)phenyl)propanoic acid] | 31 nM | 58%
O=C(O)/C=C/c1ccc(Oc2c(-c3ccc(C(F)(F)F)cc3)sc3cc(O)ccc23)cc1 [Example 3, (E)-3-(4-((6-hydroxy-2-(4-(trifluoromethyl)phenyl)benzo[b]thiophen-3-yl)oxy)phenyl)acrylic acid] | 34 nM | 18%
CC(C)c1ccccc1-c1sc2cc(O)ccc2c1Oc1ccc(/C=C/C(=O)O)cc1 [Example 4, (E)-3-(4-((6-hydroxy-2-(2-isopropylphenyl)benzo[b]thiophen-3-yl)oxy)phenyl)acrylic acid] | 0.4 nM | 13%
Cc1ccccc1-c1sc2cc(O)ccc2c1Oc1ccc(/C=C/C(=O)O)cc1 [Example 5, (E)-3-(4-((6-hydroxy-2-(o-tolyl)benzo-[b]thiophen-3-yl)oxy)-phenyl)acrylic acid] | 4 nM | 20%
O=C(O)/C=C/c1ccc(Oc2c(-c3ccc(Cl)cc3)sc3cc(O)ccc23)cc1 [Example 6, (E)-3-(4-((2-(4-chlorophenyl)-6-hydroxybenzo[b]thiophen-3-yl)oxy)phenyl)-acrylic acid] |  | 21%
O=C(O)/C=C/c1ccc(Oc2c(-c3cccc(F)c3)sc3cc(O)ccc23)cc1 [Example 7, (E)-3-(4-((2-(3-fluorophenyl)-6-hydroxybenzo[b]thiophen-3-yl)oxy)phenyl)-acrylic acid] |  | 22%
O=C(O)/C=C/c1ccc(Oc2c(-c3ccccc3C(F)(F)F)sc3cc(O)ccc23)cc1 [Example 8, (E)-3-(4-((6-hydroxy-2-(2-(trifluoromethyl)-phenyl)benzo[b]thiophen-3-yl)oxy)phenyl)-acrylic acid] | 1 nM | 17%
O=C(O)/C=C/c1ccc(Oc2c(-c3ccccc3Cl)sc3cc(O)ccc23)cc1 [Example 9, (E)-3-(4-((2-(2-chlorophenyl)-6-hydroxybenzo[b]thiophen-3-yl)oxy)phenyl)-acrylic acid] | 6 nM | 18%
Cc1cc(C(F)(F)F)ccc1-c1sc2cc(O)ccc2c1Oc1ccc(/C=C/C(=O)O)cc1 [Example 10, (E)-3-(4-((6-hydroxy-2-(2-methyl-4-(trifluoromethyl)phenyl)benzo[b]thiophen-3-yl)oxy)phenyl)acrylic acid] | 5 nM | 17%
O=C(O)/C=C/c1ccc(Oc2c(-c3ccc(C(F)(F)F)cc3C(F)(F)F)sc3cc(O)ccc23)cc1 [Example 11, (E)-3-(4-((2-(2,4-bis(trifluoromethyl)phenyl)-6-hydroxy-benzo[b]thiophen-3-yl)oxy)phenyl)-acrylic acid] | 1 nM | 15%
Cc1cccc(-c2sc3cc(O)ccc3c2Oc2ccc(/C=C/C(=O)O)cc2)c1C [Example 13, (E)-3-(4-((2-(2,3-dimethylphenyl)-6-hydroxybenzo[b]thiophen-3-yl)oxy)phenyl)-acrylic acid] | 2 nM | 14%
Cc1ccc(C)c(-c2sc3cc(O)ccc3c2Oc2ccc(/C=C/C(=O)O)cc2)c1 [Example 14, (E)-3-(4-((2-(2,5-dimethylphenyl)-6-hydroxybenzo[b]thiophen-3-yl)oxy)phenyl)-acrylic acid] | 6 nM | 15%
Cc1noc(C)c1-c1sc2cc(O)ccc2c1Oc1ccc(/C=C/C(=O)O)cc1 [Example 15, (E)-3-(4-((2-(3,5-dimethylisoxazol-4-yl)-6-hydroxybenzo-[b]thiophen-3-yl)oxy)-phenyl)acrylic acid] | 12 nM | 20%
Cc1c(O)cccc1-c1sc2cc(O)ccc2c1Oc1ccc(/C=C/C(=O)O)cc1 [Example 16, (E)-3-(4-((6-hydroxy-2-(3-hydroxy-2-methyl-phenyl)benzo[b]thiophen-3-yl)oxy)phenyl)-acrylic acid] | 6 nM | 26%
CCc1ccccc1-c1sc2cc(O)ccc2c1Oc1ccc(/C=C/C(=O)O)cc1 [Example 18, (E)-3-(4-((2-(2-ethylphenyl)-6-hydroxybenzo[b]thiophen-3-yl)oxy)phenyl)-acrylic acid] | 1 nM | 23%
CC(=O)c1ccccc1-c1sc2cc(O)ccc2c1Oc1ccc(/C=C/C(=O)O)cc1 [Example 19, (E)-3-(4-((2-(2-acetylphenyl)-6-hydroxybenzo[b]thiophen-3-yl)oxy)phenyl)-acrylic acid] | 7 nM | 19%
CC(C)(C)c1ccccc1-c1sc2cc(O)ccc2c1Oc1ccc(/C=C/C(=O)O)cc1 [Example 20, (E)-3-(4-((2-(2-(tert-butyl)phenyl)-6-hydroxybenzo[b]thiophen-3-yl)oxy)phenyl)-acrylic acid] | 1 nM | 22%
O=C(O)/C=C/c1ccc(Oc2c(-c3ccccc3[N+](=O)[O-])sc3cc(O)ccc23)cc1 [Example 21, (E)-3-(4-((6-hydroxy-2-(2-nitrophenyl)-benzo[b]thiophen-3-yl)oxy)phenyl)-acrylic acid] | 15 nM | 22%
CC(C)(C)c1ccc(-c2sc3cc(O)ccc3c2Oc2ccc(/C=C/C(=O)O)cc2)cc1 [Example 22, (E)-3-(4-((2-(4-(tert-butyl)phenyl)-6-hydroxybenzo[b]thiophen-3-yl)oxy)phenyl)-acrylic acid] | 32 nM | 18%
Cc1cc(C)cc(-c2sc3cc(O)ccc3c2Oc2ccc(/C=C/C(=O)O)cc2)c1 [Example 23, (E)-3-(4-((2-(3,5-dimethylphenyl)-6-hydroxybenzo[b]thiophen-3-yl)oxy)phenyl)-acrylic acid] | 30 nM | 22%
C[C@H](O)c1ccccc1-c1sc2cc(O)ccc2c1Oc1ccc(/C=C/C(=O)O)cc1 [Example 25, (S,E)-3-(4-((6-hydroxy-2-(2-(1-hydroxyethyl)phenyl)benzo[b]thiophen-3-yl)oxy)phenyl)acrylic acid] | 6 nM | 22%
COc1ccc(-c2sc3cc(O)ccc3c2Oc2ccc(/C=C/C(=O)O)cc2)cc1 [Example 26, (E)-3-(4-((6-hydroxy-2-(4-methoxyphenyl)benzo[b]thiophen-3-yl)oxy)phenyl)acrylic acid] | 21 nM | 18%
O=C(O)/C=C/c1ccc(Oc2c(-c3ccc(C(F)F)cc3)sc3cc(O)ccc23)cc1 [Example 27, (E)-3-(4-((2-(4-(difluoromethyl)phenyl)-6-hydroxybenzo[b]thiophen-3-yl)oxy)phenyl)acrylic acid] | 85 nM | 21%
C/C(=C\c1ccc(Oc2c(-c3ccc(O)cc3)sc3cc(O)ccc23)cc1)C(=O)O [Example 28, (E)-3-(4-((6-hydroxy-2-(4-hydroxyphenyl)-benzo[b]thiophen-3-yl)oxy)phenyl)-2-methylacrylic acid] |  | 33%
O=C(O)/C=C/c1ccc(Oc2c(-c3ccc(O)cc3)sc3cc(O)ccc23)cn1 [Example 29, (E)-3-(5-((6-hydroxy-2-(4-hydroxyphenyl)benzo[b]thiophen-3-yl)oxy)pyridin-2-yl)acrylic acid] |  | 26%
